Laboratory results from PubChem BioAssay (NCI).
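Step 1: Grow cells in 96-well plates. Step 2: Expose to compound for 48 hours at 5 concentrations. Step 3: Interpolate endpoints linearly; if unreached, use highest concentration. At the TGI there is no net growth.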

What was measured:
Experiment in all cases: growth of human tumour cells (NCI), 48 h
[1] = tested on: T-47D breast
[2] = tested on: OVCAR-8 ovarian
[3] = tested on: UACC-62 melanoma
[4] = tested on: HCT-116 colon
[5] = tested on: OVCAR-5 ovarian
[6] = tested on: TK-10 renal
[7] = tested on: SF-268 CNS
[8] = tested on: UO-31 renal
[9] = tested on: SK-MEL-2 melanoma
[10] = tested on: NCI-H23 lung
[11] = tested on: ACHN renal
[12] = tested on: MCF7 breast
[13] = tested on: SK-MEL-28 melanoma
[14] = tested on: OVCAR-4 ovarian
[15] = tested on: OVCAR-3 ovarian
[16] = tested on: KM12 colon
[17] = tested on: SW-620 colon
[18] = tested on: BT-549 breast
[19] = tested on: MDA-MB-231 breast
[20] = tested on: A498 renal
[21] = tested on: LOX IMVI melanoma
[22] = tested on: COLO 205 colon
[23] = tested on: SK-MEL-5 melanoma
[24] = tested on: SF-295 CNS
[25] = tested on: K-562 leukemia
[26] = tested on: NCI-H460 lung
[27] = tested on: U251 CNS
[28] = tested on: SR leukemia
[29] = tested on: HCT-15 colon
[30] = tested on: PC-3 prostate
[31] = tested on: MOLT-4 leukemia
[32] = tested on: HL-60(TB) leukemia
[33] = tested on: NCI-H522 lung
[34] = tested on: HOP-62 NSCLC
[35] = tested on: 786-0 renal
[36] = tested on: RXF 393 renal
[37] = tested on: DU-145 prostate
[38] = tested on: IGROV1 ovarian
[39] = tested on: SN12C renal
[40] = tested on: EKVX NSCLC
[41] = tested on: MDA-MB-435
[42] = tested on: NCI/ADR-RES ovarian
[43] = tested on: NCI-H226 lung
[44] = tested on: RPMI-8226 leukemia
[45] = tested on: CAKI-1 renal
[46] = tested on: SNB-19 CNS
[47] = tested on: HCC-2998 colon
[48] = tested on: HT29 colon
[49] = tested on: UACC-257 melanoma
[50] = tested on: MDA-N
[51] = tested on: HS 578T breast
[52] = tested on: SNB-75 CNS
[53] = tested on: MALME-3M melanoma
[54] = tested on: SK-OV-3 ovarian
[55] = tested on: A549 NSCLC
[56] = tested on: CCRF-CEM leukemia
[57] = tested on: M14 melanoma
[58] = tested on: HOP-92 NSCLC

Question: Which TGI [1] does the source give for `Cc1cccc(-n2c(C)nc3ccc(NC(=S)Nc4ccccc4)cc3c2=O)c1` here?
Answer: The TGI was > 100 µM.

Question: And the TGI [2]?
Answer: Its TGI is > 100 µM.

Question: What about the TGI [3] of the same molecule?
Answer: Its TGI is > 100 µM.

Question: What about the TGI [4] of the same molecule?
Answer: Its TGI is > 100 µM.

Question: And the TGI [5]?
Answer: The TGI was > 100 µM.

Question: What about the TGI [6] of the same molecule?
Answer: Its TGI is > 100 µM.

Question: What about the TGI [7] of the same molecule?
Answer: The TGI was > 100 µM.

Question: And the TGI [8]?
Answer: The TGI was > 100 µM.

Question: And the TGI [9]?
Answer: Its TGI is > 100 µM.

Question: And the TGI [10]?
Answer: The TGI was > 100 µM.

Question: What about the TGI [11] of the same molecule?
Answer: Its TGI is > 100 µM.

Question: And the TGI [12]?
Answer: Its TGI is > 100 µM.

Question: What about the TGI [13] of the same molecule?
Answer: Its TGI is > 100 µM.

Question: And the TGI [14]?
Answer: The TGI was > 100 µM.

Question: What about the TGI [15] of the same molecule?
Answer: The TGI was > 100 µM.

Question: What about the TGI [16] of the same molecule?
Answer: Its TGI is > 100 µM.

Question: What about the TGI [17] of the same molecule?
Answer: Its TGI is > 100 µM.

Question: What about the TGI [18] of the same molecule?
Answer: Its TGI is > 100 µM.

Question: What about the TGI [19] of the same molecule?
Answer: The TGI was > 100 µM.

Question: And the TGI [20]?
Answer: Its TGI is > 100 µM.

Question: What about the TGI [21] of the same molecule?
Answer: The TGI was > 100 µM.

Question: And the TGI [22]?
Answer: The TGI was > 100 µM.

Question: And the TGI [23]?
Answer: The TGI was 57.1 µM.

Question: What about the TGI [24] of the same molecule?
Answer: The TGI was > 100 µM.

Question: What about the TGI [25] of the same molecule?
Answer: Its TGI is > 100 µM.

Question: What about the TGI [26] of the same molecule?
Answer: The TGI was > 100 µM.

Question: What about the TGI [27] of the same molecule?
Answer: Its TGI is > 100 µM.

Question: And the TGI [28]?
Answer: Its TGI is > 100 µM.

Question: What about the TGI [29] of the same molecule?
Answer: The TGI was > 100 µM.

Question: What about the TGI [30] of the same molecule?
Answer: Its TGI is > 100 µM.

Question: And the TGI [31]?
Answer: The TGI was 71.9 µM.

Question: And the TGI [32]?
Answer: The TGI was > 100 µM.

Question: And the TGI [33]?
Answer: The TGI was > 100 µM.

Question: And the TGI [34]?
Answer: The TGI was > 100 µM.

Question: What about the TGI [35] of the same molecule?
Answer: Its TGI is > 100 µM.

Question: What about the TGI [36] of the same molecule?
Answer: Its TGI is > 100 µM.

Question: What about the TGI [37] of the same molecule?
Answer: Its TGI is > 100 µM.

Question: What about the TGI [38] of the same molecule?
Answer: Its TGI is > 100 µM.

Question: What about the TGI [39] of the same molecule?
Answer: Its TGI is > 100 µM.

Question: And the TGI [40]?
Answer: Its TGI is > 100 µM.

Question: And the TGI [41]?
Answer: Its TGI is > 100 µM.

Question: What about the TGI [42] of the same molecule?
Answer: Its TGI is > 100 µM.

Question: What about the TGI [43] of the same molecule?
Answer: The TGI was > 100 µM.

Question: And the TGI [44]?
Answer: Its TGI is > 100 µM.

Question: And the TGI [45]?
Answer: The TGI was > 100 µM.

Question: What about the TGI [46] of the same molecule?
Answer: Its TGI is > 100 µM.

Question: And the TGI [47]?
Answer: The TGI was 78.1 µM.

Question: And the TGI [48]?
Answer: Its TGI is > 100 µM.

Question: And the TGI [49]?
Answer: Its TGI is > 100 µM.

Question: What about the TGI [50] of the same molecule?
Answer: The TGI was > 100 µM.

Question: What about the TGI [51] of the same molecule?
Answer: The TGI was > 100 µM.

Question: And the TGI [52]?
Answer: The TGI was > 100 µM.

Question: And the TGI [53]?
Answer: Its TGI is > 100 µM.

Question: How did the TGI [1] turn out when `COc1ccc(-c2ncnc(-c3ccc(OC)c(OC)c3)n2)cc1OC` was run?
Answer: The TGI was > 100 µM.

Question: And the TGI [2]?
Answer: The TGI was > 100 µM.

Question: And the TGI [3]?
Answer: The TGI was > 100 µM.

Question: What about the TGI [4] of the same molecule?
Answer: The TGI was > 100 µM.

Question: And the TGI [5]?
Answer: The TGI was > 100 µM.

Question: And the TGI [6]?
Answer: The TGI was > 100 µM.

Question: What about the TGI [7] of the same molecule?
Answer: The TGI was > 100 µM.

Question: And the TGI [8]?
Answer: The TGI was > 100 µM.

Question: And the TGI [9]?
Answer: The TGI was > 100 µM.

Question: And the TGI [10]?
Answer: Its TGI is > 100 µM.

Question: What about the TGI [11] of the same molecule?
Answer: Its TGI is > 100 µM.

Question: What about the TGI [12] of the same molecule?
Answer: Its TGI is > 100 µM.

Question: What about the TGI [13] of the same molecule?
Answer: The TGI was > 100 µM.

Question: What about the TGI [15] of the same molecule?
Answer: Its TGI is > 100 µM.

Question: What about the TGI [16] of the same molecule?
Answer: The TGI was > 100 µM.

Question: And the TGI [17]?
Answer: The TGI was > 100 µM.

Question: And the TGI [18]?
Answer: The TGI was > 100 µM.

Question: What about the TGI [19] of the same molecule?
Answer: Its TGI is > 100 µM.

Question: What about the TGI [20] of the same molecule?
Answer: The TGI was > 100 µM.

Question: What about the TGI [21] of the same molecule?
Answer: Its TGI is > 100 µM.

Question: And the TGI [22]?
Answer: Its TGI is > 100 µM.

Question: What about the TGI [23] of the same molecule?
Answer: The TGI was > 100 µM.

Question: And the TGI [24]?
Answer: The TGI was > 100 µM.

Question: And the TGI [25]?
Answer: The TGI was > 100 µM.

Question: And the TGI [27]?
Answer: The TGI was > 100 µM.

Question: And the TGI [28]?
Answer: Its TGI is > 100 µM.

Question: What about the TGI [30] of the same molecule?
Answer: The TGI was > 100 µM.

Question: And the TGI [32]?
Answer: Its TGI is > 100 µM.

Question: What about the TGI [33] of the same molecule?
Answer: The TGI was > 100 µM.

Question: What about the TGI [34] of the same molecule?
Answer: The TGI was > 100 µM.

Question: What about the TGI [54] of the same molecule?
Answer: Its TGI is > 100 µM.

Question: What about the TGI [35] of the same molecule?
Answer: Its TGI is > 100 µM.

Question: And the TGI [36]?
Answer: The TGI was > 100 µM.

Question: What about the TGI [55] of the same molecule?
Answer: Its TGI is > 100 µM.

Question: What about the TGI [37] of the same molecule?
Answer: The TGI was > 100 µM.

Question: What about the TGI [38] of the same molecule?
Answer: Its TGI is > 100 µM.

Question: And the TGI [39]?
Answer: Its TGI is > 100 µM.

Question: What about the TGI [40] of the same molecule?
Answer: Its TGI is > 100 µM.

Question: What about the TGI [56] of the same molecule?
Answer: Its TGI is > 100 µM.

Question: What about the TGI [41] of the same molecule?
Answer: The TGI was > 100 µM.

Question: And the TGI [57]?
Answer: Its TGI is > 100 µM.

Question: What about the TGI [42] of the same molecule?
Answer: The TGI was > 100 µM.

Question: What about the TGI [43] of the same molecule?
Answer: Its TGI is > 100 µM.

Question: What about the TGI [58] of the same molecule?
Answer: Its TGI is > 100 µM.

Question: And the TGI [45]?
Answer: The TGI was > 100 µM.

Question: And the TGI [47]?
Answer: The TGI was > 100 µM.

Question: And the TGI [48]?
Answer: Its TGI is > 100 µM.

Question: And the TGI [49]?
Answer: The TGI was > 100 µM.

Question: And the TGI [50]?
Answer: The TGI was > 100 µM.

Question: What about the TGI [51] of the same molecule?
Answer: Its TGI is > 100 µM.

Question: And the TGI [52]?
Answer: Its TGI is > 100 µM.

Question: What about the TGI [53] of the same molecule?
Answer: Its TGI is > 100 µM.
